Test results from patent US8283308B2, “Copolymer-stabilized emulsions” (The Regents of the University of California, priority 2007, dated 2012).

Key:
Assay type in all cases: physicochemical
[1] = Emulsion droplet size by dynamic light scattering (DLS); conditions: N=6, p=130 psi, φ=0.20
Procedure: The diameters of emulsion droplets were estimated by dynamic light scattering (DLS) with a Photocor-FC board and software. The samples were diluted to obtain an intensity reading of between 1×10^5 and 6×10^5. Each measurement was performed at a scattering angle of 90° for 500 seconds, with linear channel spacing and an adjustable baseline. The fitting procedure used was cumulant analysis with an adjustable baseline to fit the data and calculate average droplet radii.

[2] = Oil/water interfacial tension, Du Nouy ring method; conditions: 10 cSt PDMS / 0.1 mM block copolypeptide solution, pull rate 0.01 mm/s, 25° C.
[3] = Emulsification activity, emulsion type and stability
Procedure: The freeze-dried K40rL10 copolypeptide was first dissolved in de-ionized water at the desired concentration. The range of block copolypeptide concentrations, C, varied from 1.0×10^−4 mM to 1.7 mM. Silicone oil (10 cSt, Gelest PDMS) was added to give the desired volume fraction φ of oil to the continuous phase (0.01≦φ≦0.8). A premix emulsion was prepared by applying shear using either a handheld homogenizer (IKA Ultra-Turrax T8 with the S8N-8G dispersing element) or a handheld ultrasonic homogenizer (Cole-Palmer 4710 Series Model ASI at an output of 35-40%). This premix emulsion was then passed through a M-110S Microfluidizer® Processor with a 75 μm stainless steel/ceramic interaction chamber and an input air pressure p=130 psi. The emulsion was collected at the product outlet of the microfluidic homogenizer, and then passed through the microfluidic homogenizer five more passes (N=6 total), which decreased the average droplet radius and increased the monodispersity of the sample. We have formed double emulsions of copolypeptide, water, and various oils other than 10 cSt and 100 cSt silicone oil, including soybean oil and methyl oleate.
Diblock copolypeptides were screened for emulsification activity by adding PDMS silicone oil to aqueous Kx(rac-L)y solutions (Table 1, FIGS. 2A-2B, 11A). […]

[4] = Emulsion droplet sizes from cryo-TEM (CTEM) images
Procedure: For certain applications, further size separation may be desired. For these applications, we could also use centrifugation to fractionate the emulsion and isolate emulsions of a desired size range. To accomplish such separation, a 1.5 mM K40rL20 emulsion (φ=0.2) that had been passed through the microfluidic homogenizer for six passes (N=6) was placed in a desktop centrifuge set to a low speed of 3,500 rpm (revolutions per minute) for 4 hours. Due to the differences in mass densities of the droplet structures with respect to the continuous liquid phase, the larger droplets rose to the top as a plug more rapidly and could be separated out easily from the extremely dilute suspension of smaller droplets below (i.e. the remnants). We were able to separate out larger droplets that had diameters greater than 300 nm. The remnant suspension had droplet diameters less than 300 nm, therefore, a higher speed centrifuge was needed to further fractionate the sizes of the droplets. The remnant suspension was placed in an ultracentrifuge and centrifuged […] at 20,000 rpm.
A 1.5 mM K40rL20 emulsion (prepared as above) was centrifuged in a 15 mL plastic centrifuge tube for 24 h at 3,500 rpm using an IEC HN-S tabletop centrifuge. A 0.5 mm plug formed, and was separated from the remnants. A plug was formed at the top of the tube (droplet sizes >300 nm, by cryo-TEM), due the different densities of silicone oil and water (0.973 g/mL for 10 cSt PDMS silicone oil vs. 1.0 g/mL for water). The plug was isolated from the rest of the sample, designated as primary remnants, and these primary remnants were further fractionated at 20,000 rpm for 4 hrs using a Beckman L8-55 ultracentrifuge. A plug formed on the top of the suspension (droplet sizes ranging from 30 nm to 200 nm, by cryo-TEM) along with droplets remaining in suspension as secondary remnants (droplet sizes ranging from 10 nm to 30 nm, by cryo-TEM).
Each emulsion sample was diluted tenfold with DI water prior to imaging. An aliquot of each sample (5 μL) was then placed on a carbon grid. The grid was loaded into a Vitrobot (FEI) automated vitrification device for automated sample blotting and vitrification in liquid ethane. The grid was stored under liquid nitrogen and then placed, using a cold stage, in a Phillips Tecnai F20 electron microscope with an accelerating voltage of 120 kV. Images were obtained on a Teitz SCX slow-scan CCD detector coupled to the Leginon software package.
PDMS silicone oil (10 cSt) was added to give the desired volume fraction A of oil to the continuous phase (0.05<φ<0.50). A microscale emulsion (i.e. “premix” emulsion) was prepared by either mixing for 1 minute using a handheld homogenizer (IKA Ultra-Turrax T8 with the S8N-8G dispersing element) or by mixing for 10 seconds using a handheld ultrasonic tip homogenizer (Cole-Parmer 4710 Series Model ASI at an output of 35-40%). This emulsion was then passed through a M-110S Microfluidizer® Processor with a 75 μm stainless steel/ceramic interaction chamber and an input air pressure p=130 psi. The emulsion was collected at the product outlet, and then passed through the microfluidic homogenizer repeatedly for a total of six passes (N=6), which decreased the average droplet radius (e.g. of the single droplets in a simple emulsion and of the outer and inner droplets in a double emulsion) and increased the monodispersity of the droplets in the emulsions. A similar protocol was used for emulsions generated using other block copolypeptide surfactants (Table 1. FIGS. 7A-7C). The ratio given by the inner droplet radius divided by the outer droplet radius (labeled as “I/O ratio”) was relatively uniform for different hydrophobic chain lengths at approximately 0.5 (Table 1, FIG. 7D). Other amphiphilic block copolypeptides, where either the lysine or leucine domains were substituted with different hydrophilic or hydrophobic residues, respectively, were also found to form double emulsions (FIGS. 8A-8D).

[5] = Critical aggregation concentration by pyrene fluorescence; conditions: pyrene fluorescence at 20° C.
[6] = sample fractionated from larger droplets by centrifugation followed by ultracentrifugation

In the case of “Poly(L-lysine-HBr)40-b-poly(rac-leucine)20 [K40(rac-L)20]”, the average droplet radius ([1]; copolypeptide concentration 0.1 mM) is reported as “about 400 nm”, the average droplet radius ([1]; copolypeptide concentration 1.5 mM) is reported as “about 160 nm” and the “Interfacial Tension (dyne/cm)” value [2] is reported as 25.3 dyne/cm. For the same substance, the “type of emulsion formed” value ([3]; PDMS silicone oil, microscopy / cryo-TEM) was “formation of double emulsions”, the “emulsification of other immiscible liquids” value ([3]; dodecane, soybean oil, methyl oleate, 1 mM in water) was “gave emulsions” and the “droplet diameters of remnant suspension after low speed centrifugation” value ([4]; 1.5 mM emulsion, 3,500 rpm) was “less than 300 nm”. The droplet diameters ([4]; after passage six times through microfluidic homogenizer) was “ten to a few hundred”, the “Inner/Outer Diameter Ratio” value ([4]; average of at least 50 droplets from CTEM, N=6, p=130 psi, C=1.0 mM, φ=0.20) was 0.57 and the “Droplet Diameter (nm)” value ([4]; outer droplets, average of at least 50 droplets from CTEM, microfluidic homogenizer N=6, p=130 psi, C=1.0 mM, φ=0.20) was 120 nm. The “Droplet Diameter (nm)” value [4, 6] was 60 nm, the “Inner/Outer Diameter Ratio” value [4, 6] was 0.45 and the “smallest double emulsion droplets, diameter” value ([4]; ultrasonic homogenization) was “ca. 400 nm”. For the same substance, the “CAC” value [5] was 970 nM.
